Entries after “also recorded” stand apart in the source; their conditions may differ.
Experiments:
endothelial cells [1] = assay: CoCl2-induced apoptosis of endothelial cells (Annexin-FITC/PI FACS); assay type: cell-based, human; conditions: 24 hours CoCl2 treatment, normoxia about 27%
Protocol: FIGS. 33a-f are representative FACS analyses depicting a specific inhibition of hypoxia-induced apoptosis of endothelial cells by ADOPep1. Endothelial cells in Petri dishes were incubated for 24 hours with 5% FCS in supplement-free endothelial cell growth medium under normoxia (FIGS. 33a and d), exposed to 24 hours hypoxia (Figures c and f) or incubated under normoxia with 100 micromolar per 100,000 cells CoCl2 (FIGS. 33b and e), in the absence (FIGS. 33a-c) or presence (FIGS. 33d-f) of 10 ng/ml Adopep1 peptide (for 24 hours). Cells were trypsinized and immediately re-suspended in PBS with 5% FCS and 0.1% Na-azide. Samples containing 100,000 cells were tested for apoptosis using the Annexin-FITC (X axis) and propidium iodide (Y axis) kit (Bender Medsystems, Vienna, Austria), according to manufacturer's instructions. Results were analyzed by FACScan (Beckton Dickinson).
FIG. 34 is a histogram depicting the FACS results of the experiments described in FIGS. 33a-f. Data represents average±SD of 2 experiments.

[2] = tested on: GRP78 receptor on endothelial cells; assay: Competitive binding of ADOPeps to GRP78 (anti-GRP78 antibody ELISA on endothelial cells); set-up: species or system human; conditions: summary of 4 experiments
Protocol: FIG. 19 is a graph depicting inhibition of binding (in percentages) of anti-GRP78 antibody to endothelial cells by increasing concentrations of ADOPep1, 2, and 3 peptides. Endothelial cells were incubated for 2 hours with increasing concentrations of ADOPeps, following which the cells were incubated for another 1 hour with the 2 μg/ml of anti-GRP78 antibody and the amount of bound antibody on EC was detected using an ELISA reader.
Endothelial cells (20,000 per well) were seeded in 96 well plates for 24 hours in the presence of the complete medium. Plates were washed with PBS over night and rehydrated with PBS, 0.1% Na Azide and 5% FCS. ADOPep1, ADOPep2 and ADOPep3 were added to washed plates for 2 hours at room temperature at concentrations of 0.01, 0.1 and 1 microgram per ml. Anti-GRP78 antibody (goat polyclona IgG, Santa Cruz Biotechnology, Calif., USA) was added to the plates for 1 hour at room temperature at a concentration of 2 micrograms/ml per well. After washing, bound anti-GRP78 antibody was detected by incubation with anti-goat IgG Peroxidase conjugated (Jackson Immuneresearch Laboratories, PA, USA). After 5 washes with PBS-0.1% Tween 20, 100 μl/well of TMB+ Substrate-Chromogen (DAKOCytomation, CA, USA) was added for a maximum of 30 minutes. Reaction was stopped with 1N HCl. Color developed was determined by an ELISA reader at 450 nm.

ERK½ = ERK½ phosphorylation in endothelial cells under hypoxia (Western blot, densitometry); assay type: cell-based, human; conditions: for ERK½ phosphorylation (in words): endothelial cells under hypoxia, 10 ng/ml
Protocol: FIGS. 30a-b are Western blot analyses depicting induction of phosphorylation of ERK by ADoPep1 and Motif A. Endothelial cells under starvation conditions and 5 hours hypoxia were incubated for 5 (lanes 2 and 6), 20 (lanes 3 and 7), 30 (lanes 4 and 8) and 60 (lanes 5 and 9) minutes with 10 ng/ml ADoPep1 (Lanes 2-5) or Motif A (lanes 6-9) peptides or remained under hypoxia without a further incubation with a peptide (lane 1). After incubation, lysates were prepared, subject to SDS-PAGE and blotting on a nitrocellulose membrane. Western Blot analysis was performed using anti-Phospho ERK½ antibody. […] FIG. 30a—Experiment 1; FIG. 30b—Experiment 2. The percent adjusted volume as determined by a densitometric analysis software to compare net band densities was as follows: FIG. 30a, lane 1-4.5, lane 2-9.3, lane 3-13.7, lane 4-13.3, lane 5-11.2, lane 6-10.7, lane 7-12.4, lane 8-12.3 and lane 9-12.4; FIG. 30b, lane 1-4.21, lane 2-12.4, lane 3-12.5, lane 4-14.8, lane 5-10.9, lane 6-14.9, lane 7-9.8, lane 8-12.7 and lane 9-7.8.
FIG. 31 is a Western blot analysis depicting the level of phosphorylated ERK (pERK) in endothelial cells activated for 20 minutes with ADOPep1 and motif A and inhibited by pERK-inhibitor peptide. Endothelial cells (from cord 1) under starvation conditions and 5 hours hypoxia were incubated with 10 ng/ml ADOPep1 (lanes 3 and 4) or motif A (lanes 1 and 2) peptides in the presence (lanes 2 and 4) or absence (lanes 1 and 3) of p-ERK-inhibitor peptide (Santa Cruz). For control, the endothelial cells under starvation conditions and 5 hours hypoxia (lane 5) were also incubated with the p-ERK-inhibitor peptide (lane 6). […] The percent adjusted volume as determined by a densitometric analysis software to compare net band densities was as follows: lane 1-19, lane 2-14, lane 3-14, lane 4-8.8, lane 5-11, lane 6-2.1.
FIGS. 32a-b are Western blot analyses depicting the effect of ADOPeps on the level of phosphorylated ERK. Endothelial cells (EC) from cord 1 (FIG. 32a) or cord 2 (FIG. 32b) under hypoxia (5 hours) were incubated for 20 or 30 minutes with 10 ng/ml of AdoPep1, AdoPep2 and AdoPep3 or remained untreated (i.e., under hypoxia without any peptide). Western Blot analyses of samples cell lysates were performed with anti Phospho ERK antibody on nitrocellulose membranes. […] The percent adjusted volume as determined by a densitometric analysis software to compare net band densities was as follows: FIG. 32a, lane 1-11, lane 2-13, lane 3-11, lane 4-5, lane 5-11, lane 6-13, lane 7-17, lane 8-16.7; FIG. 32b, lane 1-17, lane 2-22, lane 3-19, lane 4-7, lane 5-8, lane 6-13, lane 7-14, lane 8-1.

[3] = tested on: endothelial cells (HUVEC); assay: Proliferation of endothelial cells under hypoxia ([H3]Thymidine incorporation); assay type: cell-based, human; conditions: 24 hours starvation, 10 ng/ml
Protocol: FIG. 5 is a graph depicting cell proliferation as a function of ADOPeps' concentration. Proliferation of endothelial cells (EC) under hypoxia conditions was measured by [H^3]Thymidine incorporation. Endothelial cells (12,000/well) in minimal growth medium were incubated for 24 hours in the presence of 1, 10 and 100 ng/ml of ADOPep1 (SEQ ID NO:2; red diamonds), 2 (SEQ ID NO:3; blue squares) and 3 (SEQ ID NO:4; green triangles) peptides.
HUVEC from passage 3 were used for proliferation experiments. Endothelial cells (15,000 cells/well) were seeded on 24-wells in the presence of endothelial cell growth medium (Promocell, Heidelberg, Germany) with supplements and incubated for 24 hours. After then, cells were exposed to 24 hours starvation in a medium free of supplements. ADOPeps were added at concentrations of 1, 10 and 100 ng/ml for 24 hours under hypoxic conditions. 2 μCi/well of Thymidine (SIGMA, Rehovot Israel) were added or over night incubation followed by 3 washes with PBS before harvesting at 37° C. with 300 μl/well of 0.5 M NaOH. Cell lysates were transferred to scintillation vials with 2 ml scintillation liquid Ultima Gold (Packard Bioscience, Meriden, USA) and counted in a β counter. Results were obtained as counts per minute (cpm).

endothelial cells [4] = assay: Tube formation of endothelial cells on Cultrex Basement Membrane Extract; assay type: cell-based, human; conditions: 10 ng/ml, 18 hours, starvation and normoxic conditions
Protocol: FIG. 27 is a graph depicting induction of tube formation using AdoPep1 and Motif A (SEQ ID NO:7) but not the scrambled sROY peptide. Endothelial cells were incubated in media without supplements for 24 hours, and 50,000 cells were then transferred in 500 μl medium to 24-well plates precoated with 250 μl Cultrex Basement Membrane Extract (with reduced growth factors) (R&D Systems, Minneapolis, Minn., USA). AdoPep1, Motif A and scrambled sROY peptides were added at an optimal concentration of 10 ng/ml (based on preliminary findings), and the slides were examined by light microscopy after 18 hours incubation. The results represent average±SD of three experiments using 3 different cords. The length of the network of connected cells (tube formation) was measured in micrometers in 5 different areas of each well using Image-Pro Plus Image software (Media Cybernetics, Silver Spring, Md., USA).

[5] = FIG. 32a cord 1, 10 ng/ml, 20 minutes, untreated 11, 13
[6] = FIG. 32a cord 1, 10 ng/ml, 30 minutes, untreated 11, 13
[7] = FIG. 32b cord 2, 10 ng/ml, 20 minutes, untreated 17
[8] = FIG. 32b cord 2, 10 ng/ml, 30 minutes, untreated 8

| Compound | level of apoptosis (endothelial cells [1]) [%] | inhibition of binding of anti-GRP78 antibody to EC (in words) [2] | percent adjusted volume of phospho ERK band (ERK½; [5]) [%] | percent adjusted volume of phospho ERK band (ERK½; [6]) [%] | percent adjusted volume of phospho ERK band (ERK½; [7]) [%] | percent adjusted volume of phospho ERK band (ERK½; [8]) [%] | ERK½ phosphorylation (in words) (ERK½) | proliferation of endothelial cells [3] | tube formation (length of the network of connected cells) (endothelial cells [4]; listed as scrambled sROY) | tube formation (length of the network of connected cells) (endothelial cells [4]; listed as scrambled sROY peptide) |
| --- | --- | --- | --- | --- | --- | --- | --- | --- | --- | --- |
| [Cl][Co][Cl] [CoCl2, Cobalt-Chloride, reference compound] | ~67 | – | – | – | – | – | – | – | – | – |
| AVTLENFLHWRR [ADOPep3, ADAM15 derived peptide] | – | some degree of inhibition | 11 | 5 | 7 | 1 | had not effect on ERK½ phosphorylation | – | – | – |
| ENFLHWRRAHLL [ADOPep2, ADAM15 derived peptide] | – | some degree of inhibition | 11 | 13 | 19 | 14 | induced ERK½ phosphorylation; also recorded: increase in ERK½ phosphorylation | capable of inducing proliferation of EC | – | – |
| RYHLIPRGWDHS [sRoY, scrambled control peptide, reference compound] | – | not effective; also recorded: no specific inhibition effect | – | – | – | – | – | – | did not induced tube formation | no effect on tube formation |
